According to PubChem BioAssay (NCI):
Values joined by “and” are separate entries in the source; they are usually repeats but may differ in a detail not shown here. Identical values can stand only once.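 Step 1: Grow cells in 96-well plates. Step 2: Expose to compound for 48 hours at 5 concentrations. Step 3: Interpolate endpoints linearly; if unreached, use highest concentration. GI50 = concentration required for 50% inhibition of growth. TGI is the concentration that stops growth completely.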

Key:
Assay in all cases: NCI tumour cell line growth inhibition, 48 h
A549 NSCLC = tested on: A549 NSCLC
HCT-116 colon = tested on: HCT-116 colon
HL-60(TB) leukemia = tested on: HL-60(TB) leukemia
KM12 colon = tested on: KM12 colon
NCI-H460 lung = tested on: NCI-H460 lung
RPMI-8226 leukemia = tested on: RPMI-8226 leukemia
RXF 393 renal = tested on: RXF 393 renal
SK-MEL-28 melanoma = tested on: SK-MEL-28 melanoma

Row | Compound | GI50 (A549 NSCLC) | TGI (A549 NSCLC) [µM] | GI50 (HCT-116 colon) | TGI (HCT-116 colon) | GI50 (HL-60(TB) leukemia) | TGI (HL-60(TB) leukemia) | GI50 (KM12 colon) | TGI (KM12 colon) | GI50 (NCI-H460 lung) | TGI (NCI-H460 lung) | GI50 (RPMI-8226 leukemia) | TGI (RPMI-8226 leukemia) | GI50 (RXF 393 renal) | TGI (RXF 393 renal) | GI50 (SK-MEL-28 melanoma) [nM] | TGI (SK-MEL-28 melanoma) [µM]
1 | OC(COc1cccc2ccccc12)CN1CCN(c2ccccc2)CC1 (stereo not drawn) | 19300 nM | 36.6 | 13.4 µM | 27 µM | 21100 nM | 52.4 µM | 16100 nM | 31 µM | 15900 nM | 31 µM | 17000 nM | 42.9 µM | 18200 nM | 32.9 µM | 17000 | 31.6
2 | CN(C)CCCNc1nccc(-c2c(-c3ccc(F)cc3)nn3cc(C(F)(F)F)ccc23)n1 | > 21500 nM | > 25 | 8.66 µM | > 25 µM | 4550 nM | 10.9 µM | 8300 nM | > 25 µM | 6970 nM | > 25 µM | 10200 nM | > 25 µM | 3340 nM | 9.6 µM | 4290 | 8.49
3 | CNC(C)C(=O)N[C@H](C(=O)N1CCC[C@@H]1CN(CCc1ccccc1)C(=O)C(F)(F)F)[C@H](C)OCC#CC#CCO[C@H](C)[C@H](NC(=O)[C@H](C)NC)C(=O)N1CCC[C@H]1CN(CCc1ccccc1)C(=O)C(F)(F)F (stereo partly drawn) | 1720 nM | 3.27 | 1.43 µM | 2.78 µM |  |  | 1710 nM | 3.25 µM | 1830 nM | 3.59 µM | 1530 nM | 3.52 µM | 77.1 nM | 0.486 µM | 1540 | 2.96
4 | CC[CH2][Sn]([Cl])([Cl])[CH2]CC | 18200 nM | 34.3 | 13.1 µM | 25.8 µM | 2940 nM | > 100 µM | 16000 nM | 30.9 µM | 17200 nM | 34.3 µM | 2030 nM | 7.77 µM | 6960 nM | 20.6 µM | 11400 | 23.7
5 | CCCN(CCC)CCCNC(=O)c1cc2c(-c3ccc(OC)c(OC)c3)nn(C)c2s1 | 36500 nM | > 100 | 17.7 µM | 55.3 µM | 20700 nM | 46.2 µM | 26000 nM | > 100 µM | 32600 nM | > 100 µM | 14600 nM | 42.2 µM | 10700 nM | 31.1 µM | 16600 | 32.1
6 | COC(=O)Nc1nc2cc3c(cc2s1)OCCO3 | > 50000 nM | > 50 | > 50 µM | > 50 µM | > 50000 nM | > 50 µM | > 50000 nM | > 50 µM | > 50000 nM | > 50 µM | > 50000 nM | > 50 µM | > 50000 nM | > 50 µM | > 50000 | > 50
7 | COc1cc(C2CC(c3cc(C)ccc3C)=NN2c2ccc(S(=O)(=O)NC(=O)NCc3ccccc3)cc2)cc(OC)c1OC (stereo not drawn) | 3310 nM | 14.4 | 3.21 µM | > 100 µM | 3620 nM | 11.4 µM | 3440 nM | 17.6 µM | 2540 nM | 6.48 µM | 2800 nM | 9.11 µM | 2900 nM | 8.17 µM | 2260 | 5.5
8 | CNc1ccc(-c2cc(=O)oc3ccc(Cl)cc23)cc1 | 137 nM and 85.6 nM | > 100 | 0.044 µM | 5.23 µM | 43.1 nM and 31.7 nM | 2.05 µM and 1.14 µM | 50.6 nM and 43.3 nM | > 100 µM | 48.7 nM and 44.1 nM | > 100 µM | 194 nM and 154 nM | 33.9 µM | 91.2 nM | > 100 µM | 2080 | > 100
9 | COc1cccc(C2NC(=S)NC(C)=C2C(=O)Nc2ccc(F)c(Cl)c2)c1 (stereo not drawn) | 20800 nM | > 50 | 23.1 µM | > 50 µM | 17400 nM | > 50 µM | 18200 nM | > 50 µM | 43200 nM | > 50 µM | 11600 nM | > 50 µM |  |  |  | 
10 | O=C(CCCc1ccccn1)c1ccccc1 |  | > 100 |  | > 100 µM |  | > 100 µM |  |  |  | > 100 µM |  | > 100 µM |  | > 100 µM |  | > 100
11 | C=CCN(/C=C1\C(=O)O[C@H](COC)[C@@]2(C)C1=C(O)C(=O)C1=C2[C@H](OC(C)=O)C[C@]2(C)C(=O)CC[C@@H]12)CC=C | 151 nM and 361 nM |  | 3.91 µM and 1.76 µM | 20 µM and > 100 µM | 210 nM and 439 nM | 7.46 µM and 11.2 µM | 979 nM and 2190 nM | 20 µM and 46.4 µM | 278 nM and 374 nM | 20 µM and > 100 µM | 7910 nM and 1420 nM | 20 µM and 14.1 µM | 9.22 nM and 14.9 nM | 0.261 µM and 0.196 µM | 838 | 49.1
12 | CCCCN(CCCC)CCCN=c1nc2c(c(N)n1-c1ccccc1)c(=S)n(-c1ccccc1)c(=S)n2-c1ccccc1 | 1460 nM | 3.48 | 0.412 µM | 1.5 µM | 211 nM | > 100 µM | 415 nM | 1.46 µM | 483 nM | 1.71 µM | 159 nM | 0.327 µM | 1960 nM | 4.75 µM | 173 | 0.338
13 | Cc1nc(/N=C(\N)NC(=O)Nc2ccccc2Cl)sc1C | 675 nM | > 100 | 0.402 µM |  | 331 nM | 28.9 µM | 405 nM | > 100 µM | 367 nM | 1.62 µM | 406 nM | 7.65 µM | 399 nM | 2.11 µM | 916 | > 100
14 | COc1ccc(/C=C/c2cc(N3CCOCC3)c3cc(F)c(F)cc3n2)cc1OC | 1670 nM | 8.99 | 0.414 µM | 10 µM | 435 nM | 5.14 µM | 1240 nM | 13.7 µM | 526 nM | 3.72 µM | 1500 nM | 9 µM | 1360 nM | 10.8 µM | 1440 | 11.6
15 | O=C(c1cccs1)c1c(C(F)(F)F)n([O-])c2ccc(F)cc2[n+]1=O | 2320 nM | 7.02 | 0.922 µM | 2.41 µM | 154 nM | 0.394 µM | 163 nM | 0.35 µM | 1380 nM | 3.84 µM | 188 nM | 0.485 µM | 1200 nM | 2.74 µM | 1520 | 2.86
